Measurements reported in patent publication US20180353483A1, “PHARMACEUTICAL COMPOSITIONS AND METHODS FOR INDOLEAMINE, 2, 3-DIOXYGENASE INHIBITION AND INDICATIONS THEREFOR” (Incyte Corporation, priority 2015, published 2018).

Columns and labels:
[1] = Preclinical PK, renal excretion after IV dose, mice; assay type: in vivo
[2] = Preclinical PK, beagle dogs; assay type: in vivo
[3] = Unbound fraction in plasma; assay type: in vitro ADME
[4] = male, dog, in vivo, 500 mg/kg/day

## NS(=O)(=O)NCCNc1nonc1C(=NO)Nc1ccc(F)c(Br)c1 [Compound 1, 4-({2-[(aminosulfonyl)amino]ethyl}amino)-N-(3-bromo-4-fluorophenyl)-N′-hydroxy-1,2,5-oxadiazole-3-carboximidamide]
[1]
  renal excretion of unchanged compound: less than 3 % of IV dose
[2]; beagle dog
  systemic clearance in percent hepatic blood flow: 26%
[2]; beagle dogs, estimated from preclinical PK studies (not shown)
  fraction of oral dose absorbed (Fa): 81%
[2]; dogs
  renal excretion of unchanged compound: less than 3 % of IV dose
[3]
  unbound fraction in plasma: 3.1%
[4]
  NOAEL unbound AUC0-24h: 7.9 µM·h
